The source made the active and inactive calls. No rule for the calls is given here.
molecular target: Ubiquitin-conjugating enzyme E2 N (Homo sapiens) (UniProt P61088); assay: NMR detection of UBE2N ligand binding – biophysical, purified protein (AID 1552); conditions: NMR binding to purified UBE2N
Sequence (P61088 whole entry, looked up): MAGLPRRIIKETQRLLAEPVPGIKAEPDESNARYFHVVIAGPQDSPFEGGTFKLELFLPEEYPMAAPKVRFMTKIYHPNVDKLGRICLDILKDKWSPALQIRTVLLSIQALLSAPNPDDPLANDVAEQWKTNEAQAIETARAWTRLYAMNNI

SMILES | Kd
Cc1cc(SCC(=O)c2ccccc2)nc(=O)[nH]1 | > 4 mM (inactive)
Cc1cc(O)c(C)c(O)c1C(=O)O | > 4 mM (inactive)
CC(=O)Nc1ccc(NC(C)=O)c(C(F)(F)F)c1 | > 4 mM (inactive)
Cc1ccc(C(O)c2nccn2C)o1 (stereo not drawn) | > 4 mM (inactive)
Cc1n[nH]c(=O)nc1N1CCN(c2ccccc2)CC1 | > 4 mM (inactive)
C[C@H]1C(=O)O[C@@H]2CCN3CC=C(COC(=O)[C@](C)(O)[C@]1(C)O)[C@H]23 | > 4 mM (inactive)
Cc1noc(C)c1C(=O)N1CCc2ccccc2C1 | > 4 mM (inactive)
c1cc2c(cc1[C@H]1OC[C@H]3[C@@H]1CO[C@H]3c1ccc3c(c1)OCO3)OCO2 | > 4 mM (inactive)
Nc1ncnc(NCCO)c1[N+](=O)[O-] | > 4 mM (inactive)
Cc1cc(NC(=O)c2ccc3c(c2)OCO3)no1 | > 4 mM (inactive)
COc1cc(O)c2c(=O)cc(-c3ccc(OC)c(-c4c(O)cc(O)c5c(=O)cc(-c6ccc(O)cc6)oc45)c3)oc2c1 | > 4 mM (inactive)
COc1ccc(Cl)c(S(=O)(=O)N2CCCC2)c1 | > 4 mM (inactive)
C[n+]1cc2c3c(ccc2c2ccc4cc5c(cc4c21)OCO5)OCO3 | > 4 mM (inactive)
Nc1nonc1-c1nc2ccccc2[nH]1 | > 4 mM (inactive)
O=C1CN(C(=O)c2ccccc2F)c2ccccc2N1 | > 4 mM (inactive)
CP(C)(=O)CCC(=O)O | > 4 mM (inactive)
N#Cc1cccc(Cn2nnc(-c3ccccc3)n2)c1 | > 4 mM (inactive)
COC(=O)/C(=C1\OC(=O)C(c2ccccc2)C1=O)c1ccccc1 (stereo not drawn) | > 4 mM (inactive)
COc1ccc(CN2CCC(O)CC2)c(O)c1 | > 4 mM (inactive)
c1ccc(-c2nnc3sc(-c4ccncc4)nn23)cc1 | > 4 mM (inactive)
CC1(O)CC2C(CC1O)C2(C)C (stereo not drawn) | > 4 mM (inactive)
NCC(O)c1ccc(O)cc1 (stereo not drawn) | > 4 mM (inactive)
O=C1CC(=O)N(c2ccccc2)C(=O)N1 | > 4 mM (inactive)
CC(=O)Oc1c(C)c(C)c2c(c1C)CCC(C)(CCCC(C)CCCC(C)CCCC(C)C)O2 (stereo not drawn) | > 4 mM (inactive)

SMILES | Kd
COc1cc(/C=C2\SC(=S)NC2=O)ccc1O | > 4 mM (inactive)
NC(=O)CN1CCC(c2nc3ccccc3[nH]2)CC1 | > 4 mM (inactive)
CC1(C)O[C@H]2[C@H](O)C[C@](O)(C(N)=O)C[C@H]2O1 | > 4 mM (inactive)
Nc1ccc2c(c1)OCCO2 | > 4 mM (inactive)
CC1=C(C(=O)Nc2ccccc2)SCCO1 | > 4 mM (inactive)
Cc1cc(OC(=O)c2ccco2)c([N+](=O)[O-])c(=O)[nH]1 | > 4 mM (inactive)
CCc1c(C)[nH]c(=S)c(C(N)=O)c1C | > 4 mM (inactive)
Cc1cc(=O)[nH]c2ccccc12 | > 4 mM (inactive)
O=C1N=c2ccccc2=C1c1[nH]c(=S)[nH]c1O | > 4 mM (inactive)
NC(=O)CSc1nnc2ccc(-c3ccccn3)nn12 | > 4 mM (inactive)
COc1cc(OC)c2c(c1Cl)OC1(C2=O)C(O)=CC(=O)CC1C (stereo not drawn) | > 4 mM (inactive)
S=C(NCc1cccnc1)NC1CC1 | > 4 mM (inactive)
Cn1nnc2cc(C(=O)NCc3ccco3)ccc21 | > 4 mM (inactive)
O=c1[nH]cc(NC(=S)N2CCOCC2)c(=O)[nH]1 | > 4 mM (inactive)
COc1cc(O)c(C(=O)c2ccccc2)cc1O | > 4 mM (inactive)
O=c1[nH]c(=S)c2c(n1-c1ccccc1)CCC2 | > 4 mM (inactive)
O=C(O)c1cccc2c1OCC2 | > 4 mM (inactive)
O=C(Nc1cccnc1)c1c(F)c(F)c(F)c(F)c1F | > 4 mM (inactive)
Cc1cc(NS(=O)(=O)Cc2ccccc2)no1 | > 4 mM (inactive)
Cc1nnsc1C(=O)Nc1ccc(C(N)=O)cc1 | > 4 mM (inactive)
ON=c1ccc2nc3ccccc3nc2cc1 | > 4 mM (inactive)
O=C1CSC(c2ccccc2)N1 (stereo not drawn) | > 4 mM (inactive)
NC(=O)C1(S(=O)(=O)c2ccccc2)CC1 | > 4 mM (inactive)
Cc1ccc2nc(NC(=O)CN3CCOCC3)sc2c1 | > 4 mM (inactive)

SMILES | Kd
c1ccc(SCc2nc(-c3ccccn3)no2)cc1 | > 4 mM (inactive)
CCOc1ccccc1C(=O)NC1=NCCS1 | > 4 mM (inactive)
O=C(NCc1ccc2c(c1)OCO2)c1cccs1 | > 4 mM (inactive)
O=C(NCC1CCCCC1)c1ccco1 | > 4 mM (inactive)
Nc1ncnc2c1ncn2C1O[C@H](COP(=O)(O)O)[C@@H](O)[C@H]1O (stereo partly drawn) | > 4 mM (inactive)
CN1CCC(N2CCOCC2)CC1 | > 4 mM (inactive)
CC1(C)Cc2c(c(-c3ccco3)[nH]c(=O)c2C#N)CO1 | > 4 mM (inactive)
CS(=O)(=O)Nc1ccccc1C(=O)c1ccccc1 | > 4 mM (inactive)
NN1C(=O)CSC1=Nc1ccccc1 | > 4 mM (inactive)
Cc1cccc(N2CCN(C(=O)c3ccncc3)CC2)c1C | > 4 mM (inactive)
c1cc(C(N2CCOCC2)N2CCOCC2)ccn1 | > 4 mM (inactive)
O=C(O)C1CSC(c2ccc(Cl)cc2)N1 (stereo not drawn) | > 4 mM (inactive)
O=C(Oc1ccc2c(c1)CCC2)N1CCOCC1 | > 4 mM (inactive)
Nc1ccccc1N=C1CNC(=O)C1 | > 4 mM (inactive)
CCn1c(-c2c[nH]c3ccccc23)n[nH]c1=S | > 4 mM (inactive)
Nc1nc2n(c1C(=O)c1ccccc1)CCC2 | > 4 mM (inactive)
CNC(=O)C1COc2ccccc2O1 (stereo not drawn) | > 4 mM (inactive)
CC(=O)Nc1c(C)n(C)n(-c2ccccc2)c1=O | > 4 mM (inactive)
CC(C)[C@@H]1CC[C@@H](C)C[C@H]1OC(=O)c1ccccc1 | > 4 mM (inactive)
CC(=O)NC(O)C(=O)c1cccs1 (stereo not drawn) | > 4 mM (inactive)
COCC(=O)NC1CC(C)(C)NC(C)(C)C1 | > 4 mM (inactive)
COC(=O)c1oc2ccc(Cl)cc2c1NC(C)=O | > 4 mM (inactive)
Nc1ncccc1OCc1ccccc1 | > 4 mM (inactive)
CNc1nc(C)nc(-n2nc(C)cc2C)n1 | > 4 mM (inactive)

SMILES | Kd
COC(=O)C[C@H]1C(C)(C)C(=O)[C@@H]2CC3=C(CC[C@]4(C)C3=CC(=O)O[C@H]4c3ccoc3)C1(C)C2=O | > 4 mM (inactive)
CC(C)c1nnc(N)s1 | > 4 mM (inactive)
O=c1c(O)cccc2cc(O)c(O)c(O)c12 | > 4 mM (inactive)
C=C1C2CC[C@@]3(C)[C@H](c4ccoc4)OC(=O)C[C@]13O[C@H]1CC(=O)C(C)(C)[C@H](C(OC(C)=O)C(=O)OC)[C@@]21C (stereo partly drawn) | > 4 mM (inactive)
O=C(CSc1nc2ccccc2[nH]1)N1CCCCC1 | > 4 mM (inactive)
NC[C@H]1O[C@H](O[C@H]2[C@H](O)[C@@H](O[C@H]3O[C@H](CO)[C@@H](O)[C@H](N)[C@H]3O)[C@H](N)C[C@@H]2N)[C@H](N)[C@@H](O)[C@@H]1O | > 4 mM (inactive)
CC(=O)Oc1ccccc1N1C(=O)C=CC1=O | > 4 mM (inactive)
C=C1CCC2C(CC2(C)C)C(=C)CC/C1=N/O (stereo not drawn) | > 4 mM (inactive)
O=C1C2CC=CCC2C(=O)N1c1ccccc1 (stereo not drawn) | > 4 mM (inactive)
Cc1nc2c(=O)[nH]c3ccccc3c2o1 | > 4 mM (inactive)
COc1cc2c(cc1-c1coc3c4c(c(OC)cc3c1=O)OC(C)(C)C=C4)OCO2 | > 4 mM (inactive)
NS(=O)(=O)c1ccc(F)cc1 | > 4 mM (inactive)
OC1CCN(Cc2ccc[nH]2)CC1 | > 4 mM (inactive)
C=Cc1c(C)c2cc3[nH]c(cc4nc(cc5nc(cc1[nH]2)C(C)=C5CCC(=O)O)C(CCC(=O)O)=C4C)c(C)c3C=C | > 4 mM (inactive)
Nc1ncnc2nc(SCCN3CCCCC3)[nH]c12 | > 4 mM (inactive)
CN(C(=O)c1cc2cccnc2n(C)c1=O)c1ccccc1 | > 4 mM (inactive)
O=C(Nc1cccc2ncccc12)c1cccnc1 | > 4 mM (inactive)
O=CN1CCN(C(=O)c2ccc(F)cc2)CC1 | > 4 mM (inactive)
NC(=O)CN1CCCCCC1=O | > 4 mM (inactive)
CN(C)c1nc(N)nc(-c2nc3ccccc3s2)n1 | > 4 mM (inactive)
c1csc(-c2nn[nH]n2)c1 | > 4 mM (inactive)
O=C(O)c1ccnc2ccccc12 | > 4 mM (inactive)
NC(=O)C1CCN(C(=O)c2ccccc2)CC1 | > 4 mM (inactive)
CN1CCN(c2nc3c(c(=O)[nH]2)CCCC3)CC1 | > 4 mM (inactive)

SMILES | Kd
COc1cccc(N2CCNCC2)c1 | > 4 mM (inactive)
Cc1c(N=Cc2ccco2)c(=O)n(-c2ccccc2)n1C | > 4 mM (inactive)
COc1c2c(cc3c1OCO3)C13C=C[C@H](OC)CC1N(C2)CC3O (stereo partly drawn) | > 4 mM (inactive)
OCC1CCN(Cc2ccccc2)CC1 | > 4 mM (inactive)
O=C1CCC(c2cccs2)=NN1 | > 4 mM (inactive)
NS(=O)(=O)c1ccc(N2CCCC2=O)cc1 | > 4 mM (inactive)
O=C1CSC(=Nc2ccc(C(=O)O)cc2)N1 | > 4 mM (inactive)
N[C@@H](Cc1ccc(O)c(O)c1)C(=O)O | > 4 mM (inactive)
CCOC(=O)c1ccc2c(c1)nnn2C | > 4 mM (inactive)
Cc1cc(C(=O)NC2=NCCS2)cs1 | > 4 mM (inactive)
CC(=O)NCCc1cc2ccc(C)c(C)c2[nH]c1=O | > 4 mM (inactive)
CC(C)=CCc1c(O)cc(C)oc1=O | > 4 mM (inactive)
CCNS(=O)(=O)c1ccc(OC)c(C)c1 | > 4 mM (inactive)
Cn1c(O)c(C2=NC(=S)NC2=O)c2ccccc21 | > 4 mM (inactive)
O=C1CCCN1c1ccc(S(=O)O)cc1 | > 4 mM (inactive)
COC(=O)c1cccs1 | > 4 mM (inactive)
C=C1[C@H]2CC[C@@]3(C)[C@H](c4ccoc4)OC(=O)C[C@]13O[C@H]1C[C@H](O)C(C)(C)[C@H](CC(=O)OC)[C@]12C | > 4 mM (inactive)
CC(C)c1ccc(NC(=O)C(N)=O)cc1 | > 4 mM (inactive)
NS(=O)(=O)c1ccc2c(c1)OCCO2 | > 4 mM (inactive)
NCC(=O)c1ccccc1 | > 4 mM (inactive)
Cc1nc(-c2cc(C(=O)O)no2)cs1 | > 4 mM (inactive)
Cn1c(CN)nc2ccccc21 | > 4 mM (inactive)

Source: PubChem BioAssay AID1552 (Sanford-Burnham Center for Chemical Genomics, 2009)
